Experimental data from US11655268B2, “Nucleoside or nucleotide derivatives, and uses thereof” (ST Pharm Co., Ltd., priority 2018, dated 2023).
Where two headings read alike, the source gives them in different places.

Columns and labels:
in vitro [1] = conditions: human
in vitro [2] = conditions: dog
[3] = Cytotoxicity (CC50) in Vero cells; conditions: African green monkey
Influenza virus B/Lee/40 = assay: Cytopathic effect reduction, influenza B Lee in MDCK cells, MTT; format: cell-based; conditions: for Selectivity index FluB Lee: CC50/EC50; for EC50: MDCK, 72 h, read-out: Anti-Flu activity EC50 FluB Lee
CHIKV = assay: Cytopathic effect reduction, Chikungunya virus in Vero cells, MTT; format: cell-based; conditions: 72 h, read-out: EC50 CHIKV
DENV = assay: Reduction in viral infection, dengue virus in Vero cells, immunofluorescence (4G2 antibody); format: cell-based, Dengue virus New Guinea C (NGC); conditions: 72 h, read-out: EC50 DENV
MERS-CoV = assay: microbe, parasite or virus in culture; format: cell-based, MERS virus (MERS-CoV/KOR/KNIH/002_05_2015); conditions: Middle East respiratory syndrome-related coronavirus, Huh-7, 72 h, read-out: EC50 MERS-CoV
ZIKV = assay: Reduction in viral infection, zika virus in Vero cells, immunofluorescence (4G2 antibody); format: cell-based, Zikavirus (MR766); conditions: 72 h, day 3 after infection
hCoV (229E) = assay: microbe, parasite or virus in culture; format: cell-based, Human coronavirus hCoV 229E; conditions: MRC5, 72 h, read-out: EC50 hCoV (229E)
in vitro [4] = conditions: human; remark: listed apart in the source
in vitro [5] = conditions: cat
hCoV (OC43) = assay: Cytopathic effect reduction, hCoV OC43 in MRC-5 cells, MTT; format: cell-based, Human coronavirus hCoV OC43; conditions: Betacoronavirus 1, OC43, MRC5, 72 h, read-out: EC50 hCoV (OC43)
FIPV = assay: Cytopathic effect reduction, FIPV in CRFK cells, MTT; format: cell-based, feline infectious peritonitis virus (FIPV); conditions: read-out: EC50 FIPV
[6] = CC50 (CHIKV), Vero cells, CHIKV test, MTT
[7] = CC50 (DENV), Vero cells, DENV test
[8] = MRC-5 cells, day 3 after infection
[9] = read-out: CC50 (hCoV OC43), MRC-5 cells, day 3
[10] = Alphacoronavirus 1, 72 h, CRFK cells, day 3 after infection

Structure (SMILES) | CC50 at 3 days (in vitro [1]) [µM] | CC50 at 3 days (in vitro [2]) [µM] | CC50 at 3 days [3, 6] [µM] | CC50 at 3 days [3, 7] [µM] | CC50 at 3 days ([3]; CC50, Vero cells, ZIKV test) [µM] | Selectivity index FluB Lee (Influenza virus B/Lee/40) | EC50 (Influenza virus B/Lee/40) [µM] | EC50 (CHIKV) [µM] | EC50 (DENV) [µM] | EC50 (MERS-CoV) [µM] | EC50 (ZIKV) [µM] | EC50 (hCoV (229E)) [µM] | CC50 (in vitro [4]) [µM] | CC50 (MRC-5 cells; human) [µM] | CC50 (in vitro [5]) [µM] | EC50 (hCoV (OC43)) [µM] | EC50 (FIPV; Alphacoronavirus 1, CRFK, 72 h) [µM] | also measured
O=C(Nc1ccn(C2O[C@H](CO)[C@@H](O)[C@H]2F)c(=O)n1)c1cccc(-c2ccccc2)n1 (stereo in doubt) [Example 27, N-(1-((2S,3R,4R,5R)-3-fluoro-4-hydroxy-5-(hydroxymethyl)tetrahydrofuran-2-yl)-2-oxo-1,2-dihydropyrimidin-4-yl)-6-phenylpicolinamide] | 56.6 | > 100 | > 100 | 64.4 | > 100 | >6.4 | 15.6 | > 100 | 13.7 | 20.9 | > 100 |  |  |  |  |  |  | 
Cc1nccc(C(=O)Nc2ccn(C3O[C@H](CO)[C@@H](O)[C@H]3F)c(=O)n2)n1 (stereo in doubt) [Example 29, N-(1-((2S,3R,4R,5R)-3-fluoro-4-hydroxy-5-(hydroxymethyl)tetrahydrofuran-2-yl)-2-oxo-1,2-dihydropyrimidin-4-yl)-2-methylpyrimidin-4-carboxamide] | > 100 | > 100 | > 100 | > 100 | > 100 | >17.9 | 5.6 | 24 | > 100 | > 100 | > 100 |  |  |  |  |  |  | 
O=C(Nc1ccn(C2O[C@H](CO)[C@@H](O)[C@H]2F)c(=O)n1)c1ccc([N+](=O)[O-])cn1 (stereo in doubt) [Example 30, N-(1-((2S,3R,4R,5R)-3-fluoro-4-hydroxy-5-(hydroxymethyl)tetrahydrofuran-2-yl)-2-oxo-1,2-dihydropyrimidin-4-yl)-5-nitropicolinamide] | > 100 | > 100 | > 100 | > 100 | > 100 | >15.4 | 6.5 | 62.5 | 77.9 | > 100 | > 100 |  |  |  |  |  |  | 
Nc1ccc(C(=O)Nc2ccn(C3O[C@H](CO)[C@@H](O)[C@H]3F)c(=O)n2)nc1 (stereo in doubt) [Example 31, 5-Amino-N-(1-((2S,3R,4R,5R)-3-fluoro-4-hydroxy-5-(hydroxymethyl)tetrahydrofuran-2-yl)-2-oxo-1,2-dihydropyrimidin-4-yl)picolinamide] | > 100 |  |  | > 100 | > 100 |  |  |  | > 100 | > 100 | 57.6 |  |  |  |  |  |  | 
O=C(Nc1ccn(C2O[C@H](CO)[C@@H](O)[C@H]2F)c(=O)n1)c1cccnn1 (stereo in doubt) [Example 33, N-(1-((2S,3R,4R,5R)-3-fluoro-4-hydroxy-5-(hydroxymethyl)tetrahydrofuran-2-yl)-2-oxo-1,2-dihydropyrimidin-4-yl)pyridazine-3-carboxamide] | > 100 | > 100 | > 100 | > 100 | > 100 | >12.8 | 7.8 | 86.4 | > 100 | > 100 | > 100 |  |  |  |  |  |  | 
O=C(Nc1ccn([C@@H]2O[C@H](CO)[C@@H](O)C2(F)F)c(=O)n1)c1cccnc1 [Example 1, N-(1-((2R,4R,5R)-3,3-difluoro-4-hydroxy-5-(hydroxymethyl)tetrahydrofuran-2-yl)-2-oxo-1,2-dihydropyrimidin-4-yl)nicotinamide] | > 100 | > 100 |  | > 100 |  | >34.9 | 8.6 |  | 3.42 | 10.4 |  | 4.6 | > 100 | > 100 | 56 | 76 | 25 | 
O=C(Nc1ccn([C@@H]2O[C@H](CO)[C@@H](O)C2(F)F)c(=O)n1)c1ccccn1 [Example 2, N-(1-((2R,4R,5R)-3,3-difluoro-4-hydroxy-5-(hydroxymethyl)tetrahydrofuran-2-yl)-2-oxo-1,2-dihydropyrimidin-4-yl)picolinamide] | > 100 | > 100 |  | > 100 |  | >136.4 | 2.2 |  | 0.72 | 1.8 |  | 0.8 | > 100 | > 100 | > 100 | > 100 | 9.1 | 
Cc1ccc(C(=O)Nc2ccn([C@@H]3O[C@H](CO)[C@@H](O)C3(F)F)c(=O)n2)cn1 [Example 4, N-(1-((2R,4R,5R)-3,3-difluoro-4-hydroxy-5-(hydroxymethyl)tetrahydrofuran-2-yl)-2-oxo-1,2-dihydropyrimidin-4-yl)-6-methylnicotinamide] | > 100 | > 100 |  | > 100 |  | >157.9 | 1.9 |  | 0.71 | 2.2 |  | 11.1 | > 100 | > 100 | > 100 | > 100 | 8.1 | 
O=C(Nc1ccn([C@@H]2O[C@H](CO)[C@@H](O)C2(F)F)c(=O)n1)c1cccnn1 [Example 5, N-(1-((2R,4R,5R)-3,3-difluoro-4-hydroxy-5-(hydroxymethyl)tetrahydrofuran-2-yl)-2-oxo-1,2-dihydropyrimidin-4-yl)pyridazine-3-carboxamide] | > 100 | > 100 |  | > 100 |  | >142.9 | 2.1 |  | 0.94 | 1.4 |  | 8.9 | > 100 | > 100 | > 100 | 17.2 | 8.5 | 
O=C1CCCN1c1ccn([C@@H]2O[C@H](CO)[C@@H](O)C2(F)F)c(=O)n1 [Example 7] |  | > 100 |  | > 100 |  | >10.6 | 9.4 |  | 15.7 |  |  |  | > 100 |  | > 100 |  |  | EC50 (hCoV (229E); [8]): 17.6 µM; CC50 (MRC-5 cells; [9]): > 100 µM; EC50 (hCoV (OC43); [8]): > 100 µM; EC50 (FIPV; [10]): 77 µM
O=C(Nc1ccn([C@@H]2O[C@H](CO)[C@@H](O)C2(F)F)c(=O)n1)c1ccc(F)cn1 [Example 9, N-(1-((2R,4R,5R)-3,3-difluoro-4-hydroxy-5-(hydroxymethyl)tetrahydrofuran-2-yl)-2-oxo-1,2-dihydropyrimidin-4-yl)-5-fluoropicolinamide] |  | > 100 |  | > 100 |  | >16.4 | 6.1 |  | 1.34 |  |  |  | > 100 |  | > 100 |  |  | EC50 (hCoV (229E); [8]): 2.4 µM; CC50 (MRC-5 cells; [9]): > 100 µM; EC50 (hCoV (OC43); [8]): > 100 µM; EC50 (FIPV; [10]): 18 µM
Cc1ccc(C(=O)Nc2ccn([C@@H]3O[C@H](CO)[C@@H](O)C3(F)F)c(=O)n2)nc1 [Example 10, N-(1-((2R,4R,5R)-3,3-difluoro-4-hydroxy-5-(hydroxymethyl)tetrahydrofuran-2-yl)-2-oxo-1,2-dihydropyrimidin-4-yl)-5-methylpicolinamide] |  | > 100 |  | > 100 |  | >10.2 | 9.8 |  | 2.53 |  |  |  | > 100 |  | 92 |  |  | EC50 (hCoV (229E); [8]): 7.4 µM; CC50 (MRC-5 cells; [9]): > 100 µM; EC50 (hCoV (OC43); [8]): > 100 µM; EC50 (FIPV; [10]): 21 µM
